PMC4865847, “Putative histidine kinase inhibitors with antibacterial effect against multi-drug resistant clinical isolates identified by in vitro and in silico screens” (Scientific Reports, 2016)
pIC50: −log10 of the molar value. Like-named read-outs stand apart in the source and are kept apart here.

Experiments:
[1] = biological target: S. aureus PhoR (PhoR^S) (Staphylococcus aureus, UniProt Q2FXN7); experiment: In vitro autophosphorylation kinase assay with γ-32P-ATP, PhoR^S; format: biochemical; conditions: autophosphorylation, one time point (30 sec), 10% DMSO
Chain of S. aureus PhoR (PhoR^S) (Q2FXN7 entry or part of it): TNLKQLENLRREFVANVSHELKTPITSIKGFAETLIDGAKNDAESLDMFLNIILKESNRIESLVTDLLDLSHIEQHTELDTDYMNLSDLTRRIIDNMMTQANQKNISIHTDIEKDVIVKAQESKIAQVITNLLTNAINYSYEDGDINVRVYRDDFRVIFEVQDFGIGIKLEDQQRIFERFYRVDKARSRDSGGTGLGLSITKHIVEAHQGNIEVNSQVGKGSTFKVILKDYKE
Experimental: (§1) To evaluate the inhibitory capacity of selected hits from DSF, SBVS and LBSS in vitro autophosphorylation kinase assays with γ-^32P-ATP were performed as previously described. Ligands were dissolved in 100% DMSO. […] Controls lacking ligands contained an equal concentration of DMSO. Inhibition of autophosphorylation was determined by incubating 0.12 mg/ml (≈4 μM) HK and up to 20 mM fragment in kinase buffer (50 mM Tris HCl, pH 8.5, 50 mM KCl, 5 mM MgCl2, 0.5 mM EDTA and 0.1 mM DTT). Autophosporylation reactions were initiated by addition of 0.1 μCi/μl γ-^32P-ATP containing from 0.03 to 0.06 μM ATP (final concentrations). Autophosphorylation was quenched with 2xSDS-PAGE sample buffer supplemented with 50 mM EDTA. Samples were applied without heating to 15% (w/v) Tris-glycine SDS-polyacrylamide gels. After electrophoresis, the bottoms of the gels were removed to lower the background from the unincorporated radiolabeled ATP. Gels were dried without staining on a Bio-Rad Gel Air drying system and the phosphorylated protein was quantified by phosphor-imaging. Prism GraphPad was used for curve fitting and statistical analysis.

[2] = biological target: T1, E. coli PhoR (PhoR^E) (Escherichia coli, UniProt P08400); experiment: In vitro autophosphorylation kinase assay with γ-32P-ATP, PhoR^E; format: biochemical; conditions: IC50 PhoR^E, autophosphorylation, one time point (30 sec), 10% DMSO
T1 construct: The catalytic portion (DHp and CA domain) of E. coli PhoR (PhoR^E); made in house; host or cells: E. coli RIL
T1 sequence (P08400 210-425): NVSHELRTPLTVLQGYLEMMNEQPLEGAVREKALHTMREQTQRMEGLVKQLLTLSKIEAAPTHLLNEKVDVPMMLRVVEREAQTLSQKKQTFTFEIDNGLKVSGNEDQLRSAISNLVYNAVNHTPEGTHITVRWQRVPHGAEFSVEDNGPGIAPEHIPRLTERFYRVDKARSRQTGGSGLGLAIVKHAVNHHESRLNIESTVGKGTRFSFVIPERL
Experimental: as §1, with “Samples were applied without heating to 15% (w/v) Tris-glycine SDS-polyacrylamide gels.” left out

[3] = biological target: T2, T. maritima HK853 (Thermotoga maritima, UniProt Q9WZV7); experiment: In vitro autophosphorylation kinase assay with γ-32P-ATP, HK853; format: biochemical
T2 sequence (Q9WZV7 232-489): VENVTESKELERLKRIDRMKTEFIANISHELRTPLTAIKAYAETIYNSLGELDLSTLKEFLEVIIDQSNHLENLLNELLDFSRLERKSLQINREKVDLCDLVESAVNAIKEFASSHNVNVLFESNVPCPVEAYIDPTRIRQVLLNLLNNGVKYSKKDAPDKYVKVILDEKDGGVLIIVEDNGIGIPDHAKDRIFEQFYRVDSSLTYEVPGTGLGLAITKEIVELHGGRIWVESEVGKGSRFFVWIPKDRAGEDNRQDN
Experimental: as §1

[4] = biological target: T3, S. pneumoniae WalK (Streptococcus pneumoniae, UniProt Q8DPL8); experiment: In vitro autophosphorylation kinase assay with γ-32P-ATP, WalK; format: biochemical; conditions: IC50 WalK, autophosphorylation, one time point (30 sec), 10% DMSO
T3 construct: WalK (amino acids from 208 to 449); N-terminal His6-3C site of vector pOPINF (own knowledge of the vector); made in house; host or cells: E. coli RIL
T3 sequence (Q8DPL8 208-449): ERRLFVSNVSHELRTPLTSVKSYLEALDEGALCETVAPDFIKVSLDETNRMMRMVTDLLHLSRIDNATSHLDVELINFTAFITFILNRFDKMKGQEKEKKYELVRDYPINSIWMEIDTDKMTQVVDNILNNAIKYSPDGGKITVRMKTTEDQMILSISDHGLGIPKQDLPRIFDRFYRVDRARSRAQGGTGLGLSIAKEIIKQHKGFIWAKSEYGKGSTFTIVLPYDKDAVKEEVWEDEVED
Experimental: as §1, with “Samples were applied without heating to 15% (w/v) Tris-glycine SDS-polyacrylamide gels.” left out

[5] = test system: Staphylococcus aureus; experiment: Antibacterial susceptibility testing (MIC/MBC), S. aureus; format: cell-based; conditions: for MIC: Staphylococcus aureus, DSM20231, strain DSM 20231, read-out: MIC S. aureus DSM 20231
Experimental: (§2) Minimal inhibitory concentrations (MICs) were determined following a standard double-dilution method. […] For S. pneumoniae MICs were determined by adapting the standard double-dilution method to anaerobic conditions and of this microorganism (use of Todd Hewitt Yeast extract with 200 U/mL of catalase and continuous monitoring of growth).

[6] = test system: Staphylococcus epidermidis; experiment: Antibacterial susceptibility testing (MIC/MBC), S. epidermidis; format: cell-based; conditions: Staphylococcus epidermidis, DSM20044, strain DSM 20044; read-out: MIC S. epidermidis DSM 20044
Experimental: as §2

[7] = test system: Escherichia coli; experiment: Antibacterial susceptibility testing (MIC/MBC), E. coli; format: cell-based; conditions: Escherichia coli, strain CFT 073; read-out: MIC E. coli CFT 073
Experimental: as §2

Row | Structure (SMILES) | pIC50 ([1]; IC50 PhoR^S) | pIC50 [2] | pIC50 [3] | pIC50 [4] | MIC [5] [µg/mL] | MIC [6] [µg/mL] | MIC [7] [µg/mL] | pIC50 ([1]; read-out: IC50 PhoR^S) | MBC S. aureus DSM 20231 ([5]; strain DSM 20231) [µg/mL]
1 | CC(NC(=O)C1CC(=O)N(c2ccccc2)C1)c1cccc(NC(=O)c2ccccc2)c1 (stereo not drawn) [S3] | < 2.30 | < 2.30 | < 2.30 | < 2.30 | > 500 | > 500 | > 500 |  | 
2 | c1ccc2cc(CNc3ccc4c(c3)OCCO4)ccc2c1 [S7] |  | < 2.30 | < 2.30 | < 2.30 | > 500 | > 500 | > 500 | > 2.30 | > 500
3 | O=C(CCN1c2ccccc2Sc2ccccc21)OCc1cc(=O)n2ccsc2n1 [S1] | < 2.30 | < 2.30 | < 2.30 | < 2.30 | > 500 | > 500 | > 500 |  | 
4 | CC(NCc1cccc2ccccc12)c1cccc(F)c1 (stereo not drawn) [S9] | < 2.30 | < 2.30 | < 2.30 | < 2.30 | > 500 | > 500 | > 500 |  | 
5 | CC(NCc1cccc(F)c1)c1ccc2ccccc2c1 (stereo not drawn) [S10] | < 2.30 | < 2.30 | < 2.30 | < 2.30 | > 500 | > 500 | > 500 |  | 
